Assay results reported in US7582649B2, “Hydroxy alkyl substituted 1,3,8-triazaspiro[4.5]decan-4-one derivatives useful for the treatment of ORL-1 receptor mediated disorders” (Janssen Pharmaceutica, NV, priority 2002, dated 2009).
Counter-ions that a name gives are not always drawn. Like-named read-outs stand apart in the source and are kept apart here.

What was measured:
[1] = target: mu opioid receptor (Homo sapiens, UniProt P35372); assay: Filtration binding assay: mu opioid receptor
[2] = target: delta opioid receptor (Homo sapiens, UniProt P41143); assay: Filtration binding assay: delta opioid receptor
delta opioid receptor, sequence (P41143 whole entry): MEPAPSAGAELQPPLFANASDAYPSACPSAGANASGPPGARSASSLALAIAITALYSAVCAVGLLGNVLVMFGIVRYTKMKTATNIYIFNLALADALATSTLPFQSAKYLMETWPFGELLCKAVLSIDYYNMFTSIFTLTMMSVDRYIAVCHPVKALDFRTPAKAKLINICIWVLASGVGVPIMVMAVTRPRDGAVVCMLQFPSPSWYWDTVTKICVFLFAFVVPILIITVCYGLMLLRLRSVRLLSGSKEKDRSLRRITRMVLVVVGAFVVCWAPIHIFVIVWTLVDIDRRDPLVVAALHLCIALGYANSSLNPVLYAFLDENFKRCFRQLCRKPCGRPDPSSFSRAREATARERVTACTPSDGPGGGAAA

[3] = target: kappa opioid receptor (Homo sapiens, UniProt P41145); assay: Filtration binding assay: kappa opioid receptor
kappa opioid receptor, sequence (P41145 whole entry): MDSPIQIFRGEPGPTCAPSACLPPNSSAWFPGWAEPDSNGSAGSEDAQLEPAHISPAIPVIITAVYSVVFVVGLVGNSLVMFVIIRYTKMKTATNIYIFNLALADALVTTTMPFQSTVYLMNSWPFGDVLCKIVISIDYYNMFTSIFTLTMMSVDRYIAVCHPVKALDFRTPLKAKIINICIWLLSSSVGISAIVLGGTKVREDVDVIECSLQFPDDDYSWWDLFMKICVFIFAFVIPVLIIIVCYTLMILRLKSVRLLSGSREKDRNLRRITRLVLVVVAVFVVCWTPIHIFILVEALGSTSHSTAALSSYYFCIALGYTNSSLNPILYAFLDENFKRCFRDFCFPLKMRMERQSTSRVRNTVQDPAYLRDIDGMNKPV

mu opioid receptor, sequence (P35372 whole entry): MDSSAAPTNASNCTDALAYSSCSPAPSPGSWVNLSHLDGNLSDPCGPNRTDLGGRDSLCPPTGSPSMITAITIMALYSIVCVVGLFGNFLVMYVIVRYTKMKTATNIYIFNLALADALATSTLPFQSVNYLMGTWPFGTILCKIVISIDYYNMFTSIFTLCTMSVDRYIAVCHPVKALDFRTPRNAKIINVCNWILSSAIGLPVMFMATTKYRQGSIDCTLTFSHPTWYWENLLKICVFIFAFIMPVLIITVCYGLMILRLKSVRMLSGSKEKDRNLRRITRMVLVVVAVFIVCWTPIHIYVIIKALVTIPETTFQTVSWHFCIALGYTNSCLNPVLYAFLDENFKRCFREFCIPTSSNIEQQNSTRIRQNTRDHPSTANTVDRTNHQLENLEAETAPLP

SMILES	IC50 [1] [nM]	IC50 [2] [µM]	IC50 [3] [nM]	other results
COc1ccc(CCNC[C@H](O)CN2CN(c3ccc(F)cc3)C3(CCN(C4Cc5cccc6cccc4c56)CC3)C2=O)cc1OC (mixture of isomers) [compound 48]	540	> 10	170	
COc1ccc(CCNC[C@@H](O)CN2CN(c3ccc(F)cc3)C3(CCN(C4Cc5cccc6cccc4c56)CC3)C2=O)cc1OC (mixture of isomers) [compound 300]	510	4.84	130	
COC(=O)c1ccc(CNC[C@H](O)CN2CN(c3ccc(F)cc3)C3(CCN(C4Cc5cccc6cccc4c56)CC3)C2=O)cc1 (mixture of isomers) [compound 348]	5420	> 10	930	
CNCCCNCC(O)CN1CN(c2ccc(F)cc2)C2(CCN(CC3CCC4CC3C4(C)C)CC2)C1=O (mixture of isomers) [compound 664]				Ki [1]: 260 nM; Ki [2]: > 5 µM; Ki [3]: 720 nM
CC(=O)NC(CSC[C@H](O)CN1CN(c2ccc(F)cc2)C2(CCN(CC3CCCCCCC3)CC2)C1=O)C(=O)O (single isomer, unassigned) [compound 447]	480	0.48		
O=C1N(C[C@@H](O)CNCCN2CCOCC2)CN(c2ccc(F)cc2)C12CCN(CC1CCCCCCC1)CC2 [Compound #1]	620	> 10	130	
COc1ccc(CNC[C@@H](O)CN2CN(c3ccc(F)cc3)C3(CCN(CC4CCCCCCC4)CC3)C2=O)cc1OC [Compound #2]	1200	> 10	190	
O=C1N(C[C@H](O)CNCc2cc(C(F)(F)F)cc(C(F)(F)F)c2)CN(c2ccc(F)cc2)C12CCN(CC1CCCCCCC1)CC2 [Compound #3]	4050	9.16	440	
O=C1N(C[C@H](O)CNCCc2c[nH]cn2)CN(c2ccc(F)cc2)C12CCN(CC1CCCCCCC1)CC2 [Compound #4]	160	> 10	110	
O=C1N(C[C@@H](O)CNCc2ccc(F)cc2F)CN(c2ccc(F)cc2)C12CCN(CC1CCCCCCC1)CC2 [Compound #7]	1380	7.11	130	
O=C1N(C[C@@H](O)CNCCc2c[nH]cn2)CN(c2ccc(F)cc2)C12CCN(CC1CCCCCCC1)CC2 [Compound #28]	410	> 10	180	
O=C1N(C[C@@H](O)CNc2ccncc2)CN(c2ccc(F)cc2)C12CCN(CC1CCCCCCC1)CC2 [Compound #36, 8-Cyclooctylmethyl-1-(4-fluoro-phenyl)-3-[2-(S)-hydroxy-3-(pyridin-4-ylamino)-propyl]-1,3,8-triaza-spiro[4.5]decan-4-one]	1760	1.76	230	
O=C1N(C[C@@H](O)CN2CCN(c3cccc(C(F)(F)F)c3)CC2)CN(c2ccc(F)cc2)C12CCN(CC1CCCCCCC1)CC2 [Compound #66]	550	5.93	130	
CC(C)(C)OC(=O)N1CCN(C[C@H](O)CN2CN(c3ccc(F)cc3)C3(CCN(CC4CCCCCCC4)CC3)C2=O)CC1 [Compound #73]	680	> 10	250	
COc1ccc(CCN(C)C[C@@H](O)CN2CN(c3ccc(F)cc3)C3(CCN([C@@H]4Cc5cccc6cccc4c56)CC3)C2=O)cc1OC [Compound #339, (R)-8-Acenaphthen-1-yl-3-(3-{[2-(3,4-dimethoxy-phenyl)-ethyl]-methyl-amino}-(R)-2-hydroxy-propyl)-1-(4-fluoro-phenyl)-1,3,8-triaza-spiro[4.5]decan-4-one]	210	> 10	180	
CN(C)C[C@@H](O)CN1CN(c2ccc(F)cc2)C2(CCN([C@@H]3Cc4cccc5cccc3c45)CC2)C1=O [Compound #423, (R)-Acenaphthen-1-yl-3-(3-dimethylamino-2-hydroxy-(R)-propyl)-1-(4-fluoro-phenyl)-1,3,8-triaza-spiro[4.5]decan-4-one]				IC50 ([1]; mean where tested more than once, read-out: Mu IC50): 310 nM; IC50 ([2]; mean where tested more than once, read-out: Delta IC50): > 1 µM; IC50 ([3]; mean where tested more than once, read-out: Kappa IC50): 590 nM
NC[C@@H](O)CN1CN(c2ccc(F)cc2)C2(CCN(CC3CCCCCCC3)CC2)C1=O [Compound #620, 3-(3-Amino-2-(R)-hydroxy-propyl)-8-cyclooctylmethyl-1-(4-fluoro-phenyl)-1,3,8-triaza-spiro[4.5]decan-4-one]				Ki [1]: 280 nM; Ki [2]: > 5 µM; Ki [3]: 190 nM
NC[C@@H](O)CN1CN(c2ccccc2)C2(CCN([C@H]3CC[C@@H]4CCCc5cccc3c54)CC2)C1=O [Compound #640, dihydrochloride]				Ki [1]: 120 nM; Ki [2]: > 5 µM; Ki [3]: 210 nM
Cc1cccc2cccc(CN3CCC4(CC3)C(=O)N(C[C@H](O)CNCCCO)CN4c3ccc(F)cc3)c12 [Compound #651, 1-(4-Fluoro-phenyl)-3-[2-(R)-hydroxy-3-(3-hydroxy-propylamino)-propyl]-8-(8-methyl-naphthalen-1-ylmethyl)-1,3,8-triaza-spiro[4.5]decan-4-one]				Ki [1]: 670 nM; Ki [2]: > 5 µM; Ki [3]: 310 nM
CNCCCNC[C@@H](O)CN1CN(c2ccc(F)cc2)C2(CCN(Cc3cccc4cccc(C)c34)CC2)C1=O [Compound #656, 1-(4-Fluoro-phenyl)-3-[2-(R)-hydroxy-3-(3-methylamino-propylamino)-propyl]-8-(8-methyl-naphthalen-1-ylmethyl)-1,3,8-triaza-spiro[4.5]decan-4-one]				Ki [1]: 1520 nM; Ki [2]: > 5 µM; Ki [3]: 420 nM
Cc1cccc2cccc(CN3CCC4(CC3)C(=O)N(C[C@H](O)CNCCCN(C)C)CN4c3ccc(F)cc3)c12 [Compound #666, 3-[3-(3-Dimethylamino-propylamino)-2-(R)-hydroxy-propyl]-1-(4-fluoro-phenyl)-8-(8-methyl-naphthalen-1-ylmethyl)-1,3,8-triaza-spiro[4.5]decan-4-one]				Ki [1]: 2590 nM; Ki [2]: > 5 µM; Ki [3]: 140 nM

SMILES	IC50 [1] [nM]	IC50 [2] [µM]	IC50 [3] [nM]	other results
O=C1N(C[C@@H](O)CNCC23CC4CC(CC(C4)C2)C3)CN(c2ccc(F)cc2)C12CCN(CC1CCCCCCC1)CC2 [compound 17]	650	> 10	250	
Cc1cccc(CNC[C@H](O)CN2CN(c3ccc(F)cc3)C3(CCN(CC4CCCCCCC4)CC3)C2=O)c1 [compound 18]	450	> 10	280	
O=C1N(C[C@@H](O)CNCc2cccc(Br)c2)CN(c2ccc(F)cc2)C12CCN(CC1CCCCCCC1)CC2 [compound 20]	1280	> 10	440	
COc1cccc(CNC[C@H](O)CN2CN(c3ccc(F)cc3)C3(CCN(CC4CCCCCCC4)CC3)C2=O)c1 [compound 35]	820	> 10	660	
CCCCNC[C@H](O)CN1CN(c2ccc(F)cc2)C2(CCN(CC3CCCCCCC3)CC2)C1=O [compound 454]	510		120	
CSc1cccc(C(=O)N(Cc2ccc(C)cc2)C[C@H](O)CN2CN(c3ccc(F)cc3)C3(CCN(CC4CCCCCCC4)CC3)C2=O)n1 [compound 455]	5160		380	
COc1ccc(CCN(C)C[C@H](O)CN2CN(c3ccc(F)cc3)C3(CCN(Cc4c(Cl)cccc4C(F)(F)F)CC3)C2=O)cc1OC [compound 457]	> 10000		9430	
O=C1N(C[C@@H](O)CNc2ccccc2)CN(c2ccc(F)cc2)C12CCN(Cc1c(Cl)cccc1C(F)(F)F)CC2 [compound 458]	> 10000		1450	
CN(C)CCN(Cc1ccccc1)C[C@H](O)CN1CN(c2ccc(F)cc2)C2(CCN(Cc3c(Cl)cccc3C(F)(F)F)CC2)C1=O [compound 459]	> 10000		3210	
COC(=O)C(N)CSC[C@H](O)CN1CN(c2ccc(F)cc2)C2(CCN(CC3CCCCCCC3)CC2)C1=O (stereo partly drawn) [compound 460]	900		830	
Cc1cccc2cccc(CN3CCC4(CC3)C(=O)N(C[C@@H](O)CO)CN4c3ccc(F)cc3)c12 [compound 554]	> 10000		9470	
O=C1N(C[C@@H](O)CNc2ccncc2)CN(c2ccc(F)cc2)C12CCN(Cc1cc(C(F)(F)F)cc(C(F)(F)F)c1)CC2 [compound 608]	≥ 10000		≥ 10000	
O=C1N(C[C@@H](O)CNCc2cccnc2)CN(c2ccc(F)cc2)C12CCN(Cc1cc(C(F)(F)F)cc(C(F)(F)F)c1)CC2 [compound 609]	≥ 10000		≥ 10000	
CCOC(=O)CN(Cc1ccccc1)C[C@H](O)CN1CN(c2ccc(F)cc2)C2(CCN(Cc3cc(C(F)(F)F)cc(C(F)(F)F)c3)CC2)C1=O [compound 670]	≥ 10000		≥ 10000	
CCCCN(Cc1ccccc1)C[C@H](O)CN1CN(c2ccc(F)cc2)C2(CCN(Cc3cc(C(F)(F)F)cc(C(F)(F)F)c3)CC2)C1=O [compound 671]	≥ 10000		≥ 10000	
CC(c1ccccc1)N(Cc1ccccc1)C[C@H](O)CN1CN(c2ccc(F)cc2)C2(CCN(Cc3cc(C(F)(F)F)cc(C(F)(F)F)c3)CC2)C1=O (stereo partly drawn) [compound 672]	≥ 10000		≥ 10000	
COc1ccc(CCN(C)C[C@H](O)CN2CN(c3ccc(F)cc3)C3(CCN(Cc4cc(C(F)(F)F)cc(C(F)(F)F)c4)CC3)C2=O)cc1OC [compound 673]	≥ 10000		≥ 10000	
CN(C)CCN(Cc1ccccc1)C[C@H](O)CN1CN(c2ccc(F)cc2)C2(CCN(Cc3cc(C(F)(F)F)cc(C(F)(F)F)c3)CC2)C1=O [compound 674]	≥ 10000		≥ 10000	
O=C1N(C[C@@H](O)CN2CCc3ccccc3C2)CN(c2ccc(F)cc2)C12CCN(Cc1cc(C(F)(F)F)cc(C(F)(F)F)c1)CC2 [compound 682]	≥ 10000		≥ 10000	
O=C1N(C[C@@H](O)CN2CCN(c3cccc(C(F)(F)F)c3)CC2)CN(c2ccc(F)cc2)C12CCN(Cc1cc(C(F)(F)F)cc(C(F)(F)F)c1)CC2 [compound 683]	≥ 10000		≥ 10000	
CCN(CC)C(=O)C1CCCN(C[C@H](O)CN2CN(c3ccc(F)cc3)C3(CCN(Cc4cc(C(F)(F)F)cc(C(F)(F)F)c4)CC3)C2=O)C1 (stereo partly drawn) [compound 686]	≥ 10000		2520	
